Literature values in patent US20050065134A1, “2-aklylidene-19-nor-vitamin D derivatives for the treatment of anorexia or low bone mass in females exhibiting aggressive athletic behavior” (Pfizer Inc, priority 2003, published 2005).
Like-named read-outs stand apart in the source and are kept apart here.

Tested on: intestinal calcium transport
Conditions: 7 days, rats

Compound | change in intestinal calcium transport (in words) (130 and 260 pmol/day) | change in intestinal calcium transport (in words) (260 pmol/day, only dose tested)
C=C1[C@H](O)CC(=C/C=C2\CCC[C@]3(C)[C@@H]([C@H](C)CCCC(C)(C)O)CC[C@@H]23)C[C@H]1O [2-Methylene-19-Nor-1,25-(OH)2D3, 1α,25-dihydroxy-2-methylene-19-nor-vitamin D3] | no intestinal calcium transport activity | –
C=C1[C@H](O)CC(=C/C=C2\CCC[C@]3(C)[C@@H]([C@@H](C)CCCC(C)(C)O)CC[C@@H]23)C[C@H]1O [2-Methylene-19-Nor-20S-1,25-(OH)2D3, (20S)-1α,25-dihydroxy-2-methylene-19-nor-vitamin D3] | no significant change | –
C=C1/C(=C\C=C2/CCC[C@]3(C)[C@@H]([C@H](C)CCCC(C)(C)O)CC[C@@H]23)C[C@@H](O)C[C@@H]1O [1,25-(OH)2D3, 1,25-dihydroxyvitamin D3, reference compound] | – | expected elevation of intestinal calcium transport
